Earlier results in patent US20110189166A1, “METHODS OF TREATING HEMORHEOLOGIC ABNORMALITIES IN MAMMALS” (priority 2010, published 2011).

Tests used:
[1] = test system: aminophospholipid translocase (flippase); settings: by complexing a sulfhydryl group
red blood cell = settings: in vitro
cows = settings: inorganic phosphate for 2-5 days
[2] = test system: crenated or spiculated red blood cells (echinocytes); settings: horses, after exercise; U.S. Pat. No. 4,383,997
human erythrocytes = settings: red blood cells exposed to LPA
flippase = settings: independent of excess intracellular calcium

## CCN1C(=O)C=CC1=O [NEM, N-ethylmaleimide]
[1]
  activity of aminophospholipid translocase (flippase): blocks the activity of aminophospholipid translocase (flippase)

## CCCC(=O)Nc1ncnc2c1ncn2[C@@H]1O[C@@H]2COP(=O)(O)O[C@H]2[C@H]1OC(=O)CCC [dibutyryl-cAMP]
Red blood cell
  PS exposure: prevents PS exposure
  intracellular calcium entry: inhibits intracellular calcium entry
  reduction of red blood cell aggregation: about 50%

## O=P(O)(O)O [inorganic phosphate]
cows
  hemolysis after treatment: absence of hemolysis
  time to complete recovery: 14 to 21 days

## CC(=O)CCCCn1c(=O)c2c(ncn2C)n(C)c1=O [pentoxyfylline]
[2]
  increase of crenated red blood cells following exercise: inhibit the increase of crenated red blood cells following exercise

## Lysophosphatidic acid [LPA]
Human erythrocytes
  PS exposure on red blood cells: resulted in PS exposure
  adherence to endothelial cells: increased adherence to endothelial cells
  thrombin generation: potentiated thrombin generation
flippase
  flippase inhibition: inhibit flippase directly
